In patent US20240384250A1, “FIBROBLAST GROWTH FACTOR 23 MODULATING COMPOUNDS” (THE UAB RESEARCH FOUNDATION, priority 2021, published 2024):

Assays:
FGF2 binding to FGFR1c = biological target: T1, FGF2 binding to FGFR1c (Homo sapiens, UniProt P11362); assay: Plate-based binding of paracrine FGF to Fc-FGFR1c with heparin and/or sKL; settings: absence of sKL
T1 construct: a chimeric protein consisting of the FGFR1 ectodomain and the Fc region of a human IgG; purchased R&D Systems 233-FB/CF; 658FR050
T1 sequence (P11362 22-376 limits assumed): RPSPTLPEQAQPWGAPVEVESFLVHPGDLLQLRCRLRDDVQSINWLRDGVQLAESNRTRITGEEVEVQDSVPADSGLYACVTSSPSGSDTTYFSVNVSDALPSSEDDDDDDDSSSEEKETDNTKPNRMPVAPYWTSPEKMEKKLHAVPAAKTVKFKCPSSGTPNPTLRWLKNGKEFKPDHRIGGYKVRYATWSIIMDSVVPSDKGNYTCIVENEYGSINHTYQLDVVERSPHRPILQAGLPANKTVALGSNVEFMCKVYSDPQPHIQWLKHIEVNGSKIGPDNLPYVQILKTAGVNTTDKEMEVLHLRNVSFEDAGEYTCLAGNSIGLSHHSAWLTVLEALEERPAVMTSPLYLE
Experimental: (§1) Proteins were coated on 96-well plates (MaxiSorp; 439454, Thermo Fisher Scientific), and proteins were added to wells in 100 μl of enzyme-linked immunosorbent assay (ELISA) coating buffer (E107, Bethyl Laboratories) with a lid placed overtop and incubated at 4° C. overnight. Plates were washed 5× with 350 μl of assay buffer (50 mM Tris [pH 7.4], 200 mM NaCl, 0.01% Tween 20) on a 50 TS microplate washer (BioTek). Plates were blocked for 1 hour in 200 μl of assay buffer with 0.5% BSA. Plates were washed as before, and proteins were incubated on plates in 100 μl of assay buffer with 0.5% BSA. Proteins or heparin was incubated in orders described in the respective figure legends. Assays using FLAG-tag-based detection were incubated with anti-FLAG coupled to HRP at 1:20,000, and assays using Fc detection were incubated with anti-human Fc coupled to HRP at 1:10,000. Plates were washed as above, and 100 μl of 3,3′,5,5′-tetramethylbenzidine (TMB) substrate (E102, Bethyl Laboratories) was added for 15 to 20 minutes until positive wells developed a dark blue color. Reactions were stopped with ELISA stop solution (E115, Bethyl Laboratories) and analyzed using the Synergy HI plate reader (BioTek) at 450 nm wavelength. […] As a control to remove background absorbance values, wells were coated with an equal amount of BSA to match the amount of protein coated in experimental wells and treated the same as experimental wells. To study the effects of sKL on the binding between paracrine FGFs and FGFRs, plates were run as above except coated with paracrine FGFs. Fc-FGFR1 was preincubated with sKL or vehicle for 60 minutes, and then the combination was added to wells and the assay was run as before.

[1] = test system: phosphorylated ERK in HEK293T cells; assay: ERK phosphorylation in serum-starved HEK293 cells (Western blotting); format: cell-based, human; settings: FGF 1.1 nM for 10 minutes, absence of sKL
Experimental: The sample (20 μl) was loaded onto Mini-PROTEAN TGX Precast Gel 4-20% for experiments with <9 samples (4568094, Bio-Rad) or Criterion TGX Precast Gel 4-20% (5678094, Bio-Rad) for experiments with >9 samples. Gels were run in 1× Tris/Glycine/SDS buffer (1610732, Bio-Rad) at 150 V and stopped when the sample dye reached the end of the gel. Gels were removed and electrotransferred via a semi-dry cassette (1703940, Bio-Rad) in I× Tris/Glycine buffer (1610734, Bio-Rad) with 20% methanol. Gels were transferred onto polyvinylidene diflouride membranes (IPVH00010, Millipore) at 20 V for 1 hour. Membranes were then blocked in 5% dried milk with 0.5% Tween 20 diluted in Tris-buffered saline (TBST; pH 7.5) for 1 hour and probed with antibodies against specific antigens at 1:1000 in TBST with 5% dried milk. Blots were washed 3× for 5 minutes in TBST and probed with HRP-coupled secondary antibodies against specific species at 1:10,000 in TBST with 5% dried milk. Membranes were imaged on the SRX-101A X-ray film developer (Konica Minolta).
To determine the cellular activity of paracrine FGFs, the activation/phosphorylation of ERK in HEK293 cells after treatment was studied. […] Twenty microliters of samples was loaded onto 12% SDS-PAGE gels and analyzed using Western blotting for total and phosphorylated ERK.

FGF23 = biological target: T2, FGF23 (Homo sapiens, UniProt Q9GZV9); assay: Plate-based binding assay, FGF23 coated, FLAG-sKL detected with anti-FLAG HRP; settings: 2 mM glucosamine or 12.5 ng/ml tunicamycin for 48 hours
T2 construct: purchased R&D Systems 2604FG025/CF (human) or 2629FG025/CF (mouse)
Experimental: as §1, with “Plates were washed as above, and 100 μl of 3,3′,5,5′-tetramethylbenzidine (TMB) substrate (E102, Bethyl Laboratories) was added for 15 to 20 minutes until positive wells developed a dark blue color.” left out, “To study the effects of sKL on the binding between paracrine FGFs and FGFRs, plates were run as above except coated with paracrine FGFs. Fc-FGFR1 was preincubated with sKL or vehicle for 60 minutes, and then the combination was added to wells and the assay was run as before.” left out

FGFR1c = biological target: T3, FGFR1c (Homo sapiens, UniProt P11362); assay: Plate-based binding assay, FGFR1c coated, FLAG-sKL detected with anti-FLAG HRP; settings: 12.5 ng/ml tunicamycin for 48 hours
T3 construct: Fc-coupled FGFR ectodomains were immobilized on protein A/G beads; purchased R&D Systems 658FR050
Experimental: as §1, with “Plates were washed as above, and 100 μl of 3,3′,5,5′-tetramethylbenzidine (TMB) substrate (E102, Bethyl Laboratories) was added for 15 to 20 minutes until positive wells developed a dark blue color.” left out, “To study the effects of sKL on the binding between paracrine FGFs and FGFRs, plates were run as above except coated with paracrine FGFs. Fc-FGFR1 was preincubated with sKL or vehicle for 60 minutes, and then the combination was added to wells and the assay was run as before.” left out

T2 sequence (Q9GZV9 25-251, species assumed): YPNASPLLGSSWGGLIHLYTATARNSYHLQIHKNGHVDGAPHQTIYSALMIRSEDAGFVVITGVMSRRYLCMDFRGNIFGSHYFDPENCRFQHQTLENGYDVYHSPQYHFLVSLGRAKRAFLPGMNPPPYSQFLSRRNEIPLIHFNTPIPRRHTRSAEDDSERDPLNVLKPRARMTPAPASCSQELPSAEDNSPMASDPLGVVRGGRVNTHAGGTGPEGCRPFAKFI

FGF2 binding to FGFR1c (FGF2 binding to FGFR1c)	Molecule	ERK phosphorylation induced by FGF [1]	FGF23 binding affinity of sKL in media of inhibitor-treated HEK293 cells (FGF23)	FGFR1c binding of sKL in media of inhibitor-treated HEK293 cells (FGFR1c)
FGFR1c bound FGF2	FGF2: recombinant human FGF2 from R&D Systems	induced ERK phosphorylation	–	–
–	tunicamycin [reference compound]	–	much higher FGF23 binding affinity	did not affect the FGFR1c binding
–	N[C@H]1C(O)O[C@H](CO)[C@@H](O)[C@@H]1O (some centres unmarked) [Glucosmine, glucosamine, reference compound]	–	had an effect	–
